# Measurements taken from patent US11446276B2, “Extreme low dose THC as a therapeutic and prophylactic agent for Alzheimer's disease” (University of South Florida, priority 2015, dated 2022).
# Entries after “also recorded” stand apart in the source; their conditions may differ.
# Experiments:
# Aβ in N2a/AβPPswe cells = assay: Sandwich ELISA of Aβ in N2a/AβPPswe cells treated with THC and CB1 inhibitor rimonabant; type: cell-based, human; conditions: 25 nM THC with no rimonabant; 36 hour and later time points; FIG. 2
# Description: The mechanism of action was elucidated for THC's effect on Aβ levels using a sandwich ELISA assay. N2a/AβPPswe cells, as discussed in Example 1, were suspended to 2×10^5/mL, 3 mL plated into each well, and grown in DMEM with 10% fetal bovine serum, 100 U/mL penicillin, 100 μg/mL streptomycin, and 400 μg/mL G418 (Invitrogen), at 37° C. in the presence of 5% CO2. N2a/AβPPswe cells were subcultured using trypsin, and pipetted numerous times to ensure cells were separated into individual cells. Cells were counted, as provided in Example 1, and proper amount of cell medium and fresh medium was added into new flasks according to the ratio of dilution. Pipetting was performed 10 times to homogenize cells, and 3 mL of cells were seeded into medium into each 6 well plate. When one pipette was used up, the cells were mixed in the flask before using them for the next pipette. Compounds were suspended in DMSO.
# 12 hours after cells were plated, cells were treated with 25 nM of Δ9-THC (T4764-1ML Sigma Aldrich, Merck KGaA; Darmstadt, Germany), with the known inhibitor of the CB1 receptor, rimonabant, at 0 μM, 100 μM, 10 μM, 1 μM, or 0.1 μM rimonabant. Untreated N2a/AβPPswe cells were used as a control. Treatment was then washed out, i.e. the medium was then removed from the cultures and 3 mL of media containing the treatment compounds were added. Cells were collected at 12 hours afterwards, 48 hours afterwards, 60 hours afterwards, and 72 hours afterwards, and ELISA was conducted on the cells.
# ELISA assay was performed on the cells using 50 μL of goat anti-PWT1-42 antibody solution, which was incubated overnight, followed by a 1-hour incubation with 0.1% I-block buffer. The tissue culture supernatant was diluted 1:10 with diluent buffer containing a protease inhibitor. Standards were prepared by serial dilution, as provided in Example 1. The plate was washed and 50 μL of sample or standard was added with triplication. 50 μL of both Biosource 40/42 (HS) (primary antibody) Aβ and a standard solution was added to each well and incubated for 3 hours followed by 5× wash with PBST. […]
# [1] = tested on: isolated mitochondria from N2a/AβPPswe cells; assay: Respiratory function of isolated mitochondria (Clark type oxygen electrode); type: cell-based
# Description: FIG. 14A is a graph showing basal mitochondrial function after treatment with THC and a combination of THC and melatonin. N2a/AβPPswe cells were cultured in 10 cm tissue culture plate and then treated with drugs for 36 hours and mitochondria were harvested and tested for their ability of using oxygen utilization. Samples were loaded as follows; Ctrl, Control, or 10^−5 M Melatonin with 2.5 nM THC, 10^−6 M Melatonin with 2.5 nM THC, 2.5 nM THC, 10^−5 M Melatonin, or 10^−6 M Melatonin+2.5 nM THC.
# FIG. 14B is a graph showing mitochondrial function in the presence of FCCP after treatment with THC alone as well as with a combination of THC and melatonin. N2a/AβPPswe cells were cultured in 10 cm tissue culture plate and then treated with drugs for 36 hours and mitochondria were harvested and tested for their ability of using oxygen utilization. Samples were loaded as follows; Ctrl, Control, or 10^−5 M Melatonin with 2.5 nM THC, 10^−6 M Melatonin with 2.5 nM THC, 2.5 nM THC, 10^−5 M Melatonin, or 10^−6 M Melatonin+2.5 nM THC.
# mitochondrial function = conditions: THC 10 to 50 micromolar; cited from earlier work
# N2a/AβPPswe cells = assay: MTT toxicity assay; conditions: 36 hours; different concentrations; versus untreated cells; FIG. 9A
# Description: Cells were plated in 96-well tissue culture plate at 10,000 cells/well, 100 μL/well. 100 μL THC solution was added at 2× concentrations in each well. Control groups are: 1) cells without THC treatment, cells and fresh medium only and 2) blank, wells with medium without cells. All wells were replicated. Wells were incubated for 36 hours. Cell proliferation kit (Roche 11465007001) was then applied for toxicity assay according to the standard protocol. 10 μL of MTT reagent was first added to each well and incubated at 37° C. for 4 hours. Then 100 μL of solubilization solution was added to each well. These were incubated overnight and optical density (OD) values were read at 575 nm. The percentage of cell viability was calculated as: Cell viability %=(OD−OD blank)/(OD control−OD blank).
# CB1 receptor = assay: RT-PCR for CB1 receptor expression level; conditions: cells treated with low doses of THC
smiles,measurement,setting,value
"CCCCCc1cc(O)c2c(c1)OC(C)(C)[C@@H]1CCC(C)=C[C@@H]21 [THC, Δ9-tetrahydrocannabinol]",Aβ levels,Aβ in N2a/AβPPswe cells,significantly lower Aβ; also recorded: marked decreases
same,Respiration / oxygen utilization of isolated mitochondria,"[1]; 2.5 nM THC alone or with 10 μM or 1 μM melatonin, early and late stages of respiration",higher oxygen utilization
same,Basal mitochondrial function (oxygen utilization),"[1]; 36 hours treatment, FIG. 14A",enhance mitochondrial function
same,Mitochondrial function in the presence of FCCP,"[1]; 36 hours treatment, FIG. 14B",enhance mitochondrial function
same,Cell death,mitochondrial function,induces cell death
same,Mitochondrial function,mitochondrial function,inhibitor of mitochondrial function
same,"Toxicity (reduction of MTT, OD)",N2a/AβPPswe cells,no significant difference from the control; also recorded: no toxicity; also recorded: lack of toxicity
same,CB1 receptor expression level (RT-PCR),CB1 receptor,no significant upregulation
